Measured values taken from patent US20100160207A1, “Feedback Prodrug” (University of Georgia Research Foundation, Inc., priority 2006, published 2010).

Columns and labels:
[1] = biological target: T1, drosophila Golgi α-mannosidase II (dGMII) (Drosophila melanogaster, UniProt Q24451); assay: Affinity of N-benzyl mannostatin for Golgi α-mannosidase II; type: binding
T1 sequence (Q24451 1-1108): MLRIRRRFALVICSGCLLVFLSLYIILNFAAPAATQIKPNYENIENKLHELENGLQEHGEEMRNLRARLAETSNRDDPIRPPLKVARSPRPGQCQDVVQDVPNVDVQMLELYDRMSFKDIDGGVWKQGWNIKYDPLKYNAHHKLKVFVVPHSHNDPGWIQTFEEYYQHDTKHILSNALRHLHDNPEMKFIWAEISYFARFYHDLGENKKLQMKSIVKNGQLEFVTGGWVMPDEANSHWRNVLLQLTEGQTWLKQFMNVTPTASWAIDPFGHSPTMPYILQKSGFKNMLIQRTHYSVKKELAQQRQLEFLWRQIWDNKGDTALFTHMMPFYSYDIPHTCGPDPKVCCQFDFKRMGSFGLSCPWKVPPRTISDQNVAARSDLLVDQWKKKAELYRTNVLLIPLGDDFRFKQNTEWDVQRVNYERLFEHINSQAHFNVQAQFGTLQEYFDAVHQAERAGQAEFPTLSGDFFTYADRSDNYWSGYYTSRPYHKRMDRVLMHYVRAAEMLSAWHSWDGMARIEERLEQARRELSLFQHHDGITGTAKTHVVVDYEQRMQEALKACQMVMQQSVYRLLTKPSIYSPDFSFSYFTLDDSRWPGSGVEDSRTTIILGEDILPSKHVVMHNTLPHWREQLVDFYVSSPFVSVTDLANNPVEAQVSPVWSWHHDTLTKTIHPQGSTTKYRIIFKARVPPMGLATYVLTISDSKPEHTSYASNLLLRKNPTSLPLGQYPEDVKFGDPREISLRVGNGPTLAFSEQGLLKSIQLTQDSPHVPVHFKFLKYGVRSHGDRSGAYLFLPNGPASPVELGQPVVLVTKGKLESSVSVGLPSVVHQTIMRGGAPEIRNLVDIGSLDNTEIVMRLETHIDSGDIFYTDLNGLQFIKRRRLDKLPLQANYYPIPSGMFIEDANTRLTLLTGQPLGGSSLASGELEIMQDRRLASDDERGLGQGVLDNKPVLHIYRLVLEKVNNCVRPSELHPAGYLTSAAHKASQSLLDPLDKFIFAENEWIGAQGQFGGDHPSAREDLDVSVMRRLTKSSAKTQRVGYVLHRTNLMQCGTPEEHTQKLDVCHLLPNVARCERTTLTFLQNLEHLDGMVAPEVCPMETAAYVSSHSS
From the text: The finding was ultimately explained by careful examination of the crystal structure of dGMII with the synthetic inhibitor; see Kawatkar et al., J. Am. Chem. Soc., 128, 8310-8319 (2006).

[2] = biological target: T2, human lysosomal mannosidase (HLM) (Homo sapiens, UniProt O00754); assay: Enzymatic cleavage of prodrugs by human lysosomal mannosidase monitored by 1H NMR; type: biochemical; settings: HLM 20 mU, 80 nmol compound, sodium acetate buffer pH 5.6, 37° C.
T2 sequence (O00754 50-1011): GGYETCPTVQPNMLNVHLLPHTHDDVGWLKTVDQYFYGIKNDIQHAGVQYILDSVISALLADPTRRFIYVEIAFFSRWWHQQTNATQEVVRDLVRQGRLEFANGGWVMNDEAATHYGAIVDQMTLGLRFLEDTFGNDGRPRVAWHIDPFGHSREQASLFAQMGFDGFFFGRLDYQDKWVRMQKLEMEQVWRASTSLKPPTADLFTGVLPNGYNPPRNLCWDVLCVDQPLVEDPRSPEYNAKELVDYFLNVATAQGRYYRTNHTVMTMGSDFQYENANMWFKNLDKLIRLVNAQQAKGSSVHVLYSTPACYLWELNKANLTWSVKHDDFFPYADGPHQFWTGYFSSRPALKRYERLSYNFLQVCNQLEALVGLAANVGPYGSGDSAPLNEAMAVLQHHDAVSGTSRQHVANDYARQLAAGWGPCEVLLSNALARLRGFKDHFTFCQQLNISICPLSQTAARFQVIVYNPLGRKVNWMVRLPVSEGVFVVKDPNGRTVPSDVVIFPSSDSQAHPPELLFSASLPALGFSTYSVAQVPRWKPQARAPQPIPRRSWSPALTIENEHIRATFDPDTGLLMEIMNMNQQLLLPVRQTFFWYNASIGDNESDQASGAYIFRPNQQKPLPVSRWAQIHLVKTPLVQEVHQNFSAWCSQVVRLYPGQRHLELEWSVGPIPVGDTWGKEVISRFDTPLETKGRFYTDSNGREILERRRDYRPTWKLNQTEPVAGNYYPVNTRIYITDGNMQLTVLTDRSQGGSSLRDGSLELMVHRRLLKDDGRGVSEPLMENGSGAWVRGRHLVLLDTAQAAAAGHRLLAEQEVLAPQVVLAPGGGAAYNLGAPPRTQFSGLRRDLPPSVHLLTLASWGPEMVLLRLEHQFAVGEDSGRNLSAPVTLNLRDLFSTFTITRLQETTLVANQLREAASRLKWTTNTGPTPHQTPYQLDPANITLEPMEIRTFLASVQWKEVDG
Procedure: HLM ([…]) was added to a solution of 2 (a) or 1 (b) ([…]) in a deuterated sodium acetate buffer (100 mM, pH, 5.6, 0.2 mL) and the enzymatic cleavage was monitored by ^1H NMR (600 MHz).
The enzymatic cleavage of 1 and 2 by human lysosomal mannosidase (HLM) was monitored by ^1H NMR (600 MHz) (Wilson et al., Org. Lett. 1999, 1, 443) Thus, HLM (20 mU) was added to a solution of 1 or 2 (80 nmol) dissolved in a deuterated sodium acetate buffer (100 mM, pH 5.6, 0.2 mL). The progress of the reaction was monitored by the integration of key signals of the starting material, the intermediate and final product. […] In this case, the released mannostatin A (5) inhibits HLM terminating further hydrolysis of 1. Mannostatin A is a potent inhibitor of retaining α-mannosidases (Ki=90 nM, HLM) (Li et al., Chem. Bio. Chem. 2004, 5, 1220) and thus the release of low concentrations of the active compound is sufficient to abolish enzyme activity.
Kinetic measurements. A solution of compound 1 or 2 (0.08 μmol) and human lysosomal mannosidase (HLM, 0.02 Unit) in deuterated sodium acetate buffer (0.1 M; pH 5.6; 0.2 ml) was incubated at 37° C., and ^1H NMR spectra (600 MHz) were recorded at different time intervals. Relevant signals were integrated to determine the rate of enzymatic hydrolysis, and the appearance of the intermediate and the final product.

α-glucosidase = assay: Negative enzyme control experiment, α-glucosidase; type: biochemical; settings: 0.1 Unit, MES buffer pH 6.8, 37° C., 20 h
Procedure: (§1) Compounds 1 and 2 were subjected to an α-glucosidase, α-fucosidase and α-galactosidase.
(§2) Negative enzyme control experiments. A solution of compound 1 or 2 (0.004 mmol) and α-glucosidase, α-galactosidase or α-L-fucosidase (0.1 Unit) in MES buffer (0.05 M; pH 6.8 for α-glucosidase, pH 6.5 for α-galactosidase or pH 5.5 for α-L-fucosidase; 1 ml) was incubated at 37° C. for 20 h, after which the reaction mixture was freezing-dried, and the solid residue was analyzed by ^1H NMR spectrometry and mass spectrometry.

α-galactosidase = assay: Negative enzyme control experiment, α-galactosidase; type: biochemical; settings: 0.1 Unit, MES buffer pH 6.5, 37° C., 20 h
Procedure: as §1, §2

α-L-fucosidase = assay: Negative enzyme control experiment, α-L-fucosidase; type: biochemical; settings: 0.1 Unit, MES buffer pH 5.5, 37° C., 20 h
Procedure: as §1, §2

[3] = Treatment with cell lysate in the presence of swainsonine and kifunensine; type: in vitro ADME
[4] = Stability measurements in deuterated sodium acetate buffer by 1H NMR; type: physicochemical; settings: 0.4 mM, sodium acetate buffer pH 4.0, 37° C., 6 days
Procedure: Stability measurements. A solution of compound 1 or 2 (0.4 mM) in deuterated sodium acetate buffer (100 mM; pH 4.0; 0.2 ml) in a NMR tube was incubated at 37° C. for 6 days. ^1H NMR spectra were recorded every day.

| Compound | affinity compared with mannostatin A [1] | enzymatic hydrolysis of the prodrug by HLM [2] | decomposition by α-glucosidase (α-glucosidase) | decomposition by α-galactosidase (α-galactosidase) | decomposition by α-L-fucosidase (α-L-fucosidase) | decomposition in cell lysate [3] | decomposition in buffer [4] |
| --- | --- | --- | --- | --- | --- | --- | --- |
| CSC1C(O)C(O)C(O)C1NCc1ccccc1 (stereo not shown) [N-benzyl mannostatin] | slightly reduced affinity | – | – | – | – | – | – |
| CSC1C(O)C(O)C(O)C1NC(=O)OCc1ccc(O[C@H]2O[C@H](CO)[C@@H](O)[C@H](O)[C@@H]2O)cc1 (stereo partly drawn) [Compound 1, 1D-(1,2,3,4/5)-4-[4-(α-D-mannopyranosyloxy)-benzyloxycarbonyl]amino-5-(methylsulfanyl)cyclopentane-1,2,3-triol] | – | virtually no hydrolysis was observed | No decomposition of product was observed | No decomposition of product was observed | No decomposition of product was observed | did not lead to decomposition | No decomposition of product was observed |
